Data reported in patent US6930222B2, “In vivo animal model of human leukemia” (The Scripps Research Institute, priority 2000, dated 2005).

Test system: primary T-ALL obtained from patients
Experiment: in vitro leukemia colony assay (methylcellulose, IL-2 and PMA)
Type: cell-based, human
Details: 10 ng/ml
Description: To characterize the nature of the enhancing activity on leukemia engraftment, colony formation of leukemia clonogenic cells was examined in vitro in the presence of cord blood or cord blood derived mesenchymal stem cell conditioned medium. The in vitro leukemia colony assay is based on the ability of leukemic clonogenic cells to proliferate and form colonies in response to growth factors such as IL-2. These leukemic “progenitor” cells have been implicated in the maintenance and expansion of leukemic blast populations.
On microscopic analysis, there is a wide range of colony sizes in the samples to which conditioned medium was added. The colonies in the cultures were individually picked, pooled for similar sizes of colonies, and the number of leukemia cells counted.
Using this primary leukemia sample, leukemia colony forming assay with the addition of cord blood conditioned medium was performed. […] On day 14, leukemia colonies were individually picked. Approximately 1.4×10^6 cells were recovered, and these cells were pooled for flow cytometric analysis. The vast majority of cells are uniquely CD45^−CD7^+, CD45^−CD34^+, and CD7^+CD34^+. Collectively, the results are consistent with approximately 90% of the harvested cells from in vitro cultures having the surface phenotype CD45^−CD7^+CD34^+, identical to the atypical phenotype of the primary leukemia of this patient. […]

recombinant IL-15: potent immunoregulatory cytokine, also a T-cell growth factor
stimulation of colony formation of primary leukemia: about 80%
